Patent US6140354A, “N-substituted aminotetralins as ligands for the neuropeptide Y Y5 receptor useful in the treatment of obesity and other disorders” (Ortho-McNeil Pharmaceutical, Inc., priority 1999, dated 2000)

Assays:
[1] = cited from earlier work
[2] = icv or into the amygdala; cited from earlier work
[3] = animal models of learning; cited from earlier work
[4] = system: forskolin-stimulated cAMP production/levels in a neuroblastoma cell line; conditions: cited from earlier work
[5] = Rodent Feeding Model: Measurement of Food Intake in Food-Deprived Rats; format: in vivo, Male Long-Evans rats; conditions: 30 mg/kg i.p., N = 8
Description: Male Long-Evans rats (180-200 grams) are housed individually and are maintained on a once-a-day feeding schedule (i.e. 10 a.m. until 4 p.m.) for five days following quarantine to allow the animals to acclimate to feeding on powdered chow (#5002 PMI Certified Rodent Meal) during the allotted time. The chow is made available in an open jar, anchored in the cage by a wire, with a metal follower covering the food to minimize spillage. Water is available ad-libitum.
Animals are fasted for 18 hours prior to testing. At the end of the fasting period, animals are administered either compounds of the invention or vehicle. Vehicle and test compounds are administered either orally (5 mL/kg) 60 minutes prior to the experiment, or 30 minutes prior when given subcutaneously (1 mL/kg) or intraperitoneally (1 mL/kg). Compounds of the invention are administered orally as a suspension in aqueous 0.5% methylcellulose-0.4% Tween 80, or intraperitoneally as a solution or suspension in PEG 200; compound concentrations typically range from 1 mg/kg to 100 mg/kg, preferably from 10-30 mg/kg. Food intake is measured at 2, 4, and 6 hours after administration by weighing the special jar containing the food before the experiment and at the specified times. Upon completion of the experiment, all animals are given a one-week washout period before retesting.
Percent reduction of food consumption is calculated subtracting the grams of food consumed by the treated group from the grams of food consumed by the control group divided by the grams of food consumed by the control group, multiplied by 100. [formula] A negative value indicates a reduction in food consumption and a positive value indicates an increase in food consumption.

[6] = target: T1, human neuropeptide Y5 receptor (Homo sapiens, UniProt Q15761); assay: NPY5 HTS Centrifugation Assay: competition with 125I-PYY for binding to NPY5-transfected HEK293 cell membranes; conditions: 80 pM 125I-PYY, 1 hr room temperature, read-out: % Inh @ 3 uM (% Inhibition of ^125 I-PYY Binding)
T1 construct: expressed in transfected cells
T1 sequence (Q15761 1-445): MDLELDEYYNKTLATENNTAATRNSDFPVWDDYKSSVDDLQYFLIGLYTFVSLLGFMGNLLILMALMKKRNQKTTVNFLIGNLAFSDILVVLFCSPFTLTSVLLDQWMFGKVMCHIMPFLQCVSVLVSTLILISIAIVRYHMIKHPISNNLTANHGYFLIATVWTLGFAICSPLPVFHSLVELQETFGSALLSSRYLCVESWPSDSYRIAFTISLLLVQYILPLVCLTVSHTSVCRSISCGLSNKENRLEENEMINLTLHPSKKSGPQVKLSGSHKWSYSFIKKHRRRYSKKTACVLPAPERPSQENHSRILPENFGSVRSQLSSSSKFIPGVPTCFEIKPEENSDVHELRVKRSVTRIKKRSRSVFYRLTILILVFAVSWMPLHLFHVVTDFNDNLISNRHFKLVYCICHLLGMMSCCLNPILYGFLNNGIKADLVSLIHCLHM
Description: The compounds described in this invention were evaluated for binding to the human neuropeptide Y5 receptor.
The human NPY5 receptor cDNA (Genbank Accession number U66275) was inserted into the vector pClneo (Invitrogen) and transfected into human embryonic kidney cells (HEK-293) via Calcium phosphate method (Cullen 1987). Stably transfected cells were selected with G-418 (600 ug/mL). Stably transfected cells served as the source for the membranes for the NPY5 receptor binding assay.
NPY5-transfected HEK293 cells were grown to confluence in 150 cm^2 culture dishes. Cells were washed once with phosphate-buffered saline (Gibco Cat#14040-133). Cells were then incubated in phosphate-buffered saline without Calcium and without Magnesium, supplemented with 2 mM EDTA. Cells were incubated for 10 minutes at room temperature and the cells were collected by repetitive pipeting. Cells were formed into pellets and then frozen at -80 until needed. Frozen pellets were homogenized with a polytron at full speed for 12 seconds in a homogenization buffer (20 mM Tris HCl, 5 mM EDTA, pH 7.4). Homogenates were centrifuged for 5 minutes at 4C at 200 g. Supernatants were transferred to corex tubes and centrifuged for 25 minutes at 28,000 g. Pellets were re-suspended in Binding (20 mM HEPES, 10 mM NaCl, 0.22 mM KH2 PO4, 1.3 mM CaCl2, 0.8 mM MgSO4, pH 7.4). Membranes were kept on ice until use.
A competition binding assay, known to those skilled in the art, was used in which aminotetralins (I) compete with ^125 I-PYY for binding to cell membranes. In simple terms, the less ^125 I-PYY bound to the membranes implies that a compound is a good inhibitor (competitor). Bound ^125 I-PYY is determined by centrifugation of membranes, aspirating supernatant, washing away residual ^125 I-PYY and subsequently counting the bound sample in a g-counter.
Compounds to be tested were prepared as 10× stocks in binding buffer and added first to assay tubes (RIA vials, Sarstedt). Twenty (20) μL of each 10× compound stock is pipeted into vials and 80 μL of ^125 I-PYY (NEN catalog number NEX240), which has been diluted to a concentration of 200 pM in 0.25% BSA in binding buffer, is added to the compound tubes (final concentration of ^125 I-PYY is 80 pM). To each tube is added 100 μL of membranes and the mixture is agitated by pipeting 2 times. Samples are incubated for 1 hr at room temperature. Aluminum cast plates (Sarstedt) containing the vials are then centrifuged 10 minutes at 3200 rpm in a Sorvall RT6000. Supernatant is then aspirated. To each vial 400 μL PBS is added and this is then aspirated again. Vials are then put in carrier polypropylene 12×75 tube and counted in gamma counter (Packard). Non-specific binding is determined in the presence of 300 nM NPY. Percent inhibition of ^125 I-PYY binding is calculated by subtracting non-specific binding from the test samples (compound (I)), taking these counts and dividing by total binding, and multiplying by 100. Inhibitory concentration values (IC50) of compounds that show appreciable inhibition of ^125 I-PYY binding are calculated by obtaining percent inhibition of ^125 I-PYY binding values at different concentrations of the test compound, and using a graphing program such as GraphPad Prism (San Diego, Calif.) to calculate the concentration of test compound that inhibits fifty-percent of ^125 I-PYY binding (Table 4). These operations are known to those skilled in the art.

classic Y1 receptor = conditions: cited from earlier work

Neuropeptide Y: single peptide protein that consists of thirty-six amino acids containing an amidated C-terminus
food intake ([1]; as little as one-billionth of a gram injected directly into the CNS, satiated rats): causes satiated rats to overeat | anxiolytic effects [2]: produces anxiolytic effects | memory and performance scores [3]: improves memory and performance scores | forskolin-stimulated cAMP production/levels [4]: inhibits forskolin-stimulated cAMP production/levels

O=S(=O)(NC[C@H]1CC[C@H](CN[C@H]2CCc3cc(O)ccc3[C@H]2Cc2cccnc2)CC1)c1ccccc1F (relative stereo) [Compound 44, rac-[1α,2α(trans)]-N-[[[[[1,2,3,4-tetrahydro-6-hydroxy-1-(3-pyridinylmethyl)-2-naphthalenyl]amino]methyl]-4-cyclohexyl]methyl]2-fluorobenzenesulfonamide]
Food Consumption (grams) 0-2 hrs ([5]; 0-2 hrs): 4.75 g | Food Consumption (% chg.) 0-2 hrs ([5]; 0-2 hrs, vs vehicle, negative = reduction): -40.6% | Food Consumption (grams) 0-6 hrs ([5]; 0-6 hrs): 14.00 g | Food Consumption (% chg.) 0-6 hrs ([5]; 0-6 hrs, vs vehicle, negative = reduction): -24.3% | Food Consumption (grams) 2-6 hrs ([5]; 2-6 hrs): 9.25 g | Food Consumption (% chg.) 2-6 hrs ([5]; 2-6 hrs, vs vehicle, negative = reduction): -11.9% | inhibition at 3 µM [6]: 101%

NPY2-36: NPY fragment
feeding ([1]; NPY fragment): potent inducer of feeding | binding at the classic Y1 receptor (classic Y1 receptor): poor binding
